pKd: −log10 of the molar value. “Also recorded” adds a separate entry of the source. Ends that are not written are not given here. Peptide text beside a SMILES is read from it.

This is an account of results in publication PMC6109075, “Characterization of membrane penetration and cytotoxicity of C9orf72-encoding arginine-rich dipeptides” (Scientific Reports, 2018).

The subject of one data set is HEK293 cells. In words: Confocal imaging of live or fixed/permeabilized HEK293 cells treated with FITC-labeled CPPs. The class given is cell-based, human. Particulars: for entry into fixed/permeabilized cells: HEK293 cells after fixation/permeabilization, 10 μM FITC-peptide. The method, then:
HEK293 cells were treated with 10 μM of FITC-labeled CPPs for 1 hr in combination with Nucblue live dye and then washed with PBS twice. The images were obtained by FV10 confocal microscopy (Olympus, Japan) or LSM710 confocal microscopy (Zeiss, Germany).
For RNAse A treatment, the HEK293 cells, fixed and permeabilized, were incubated with 10 μg/ml of recombinant RNAse A for 1 hr at 37 °C, followed by treatment with 10 μM of FITC-labeled peptides for 30 min. The cells were then washed with PBS twice and imaged with a confocal microscopy.

A short description of data set [1]: Functional assay of (PR)12 stability after incubation in culture medium. The conditions noted are these: 20 µM (PR)12-FITC, 2 hr with live HEK293 cells in DMEM-10%FBS, conditioned medium transferred to fixed/permeabilized HEK293 cells, read-out nucleolar accumulation. The class given is in vitro ADME.
For data set [2], the system named is NSC34 cells. As to the kind of experiment: LDH release assay in NSC34 cells. The class given is cell-based, mouse. The conditions noted are these: 24 hr, N = 6. The procedure: LDH assay was performed with Cytotoxicity LDH Assay Kit-WST from Wako (Japan) following the manufacture’s protocol. Briefly, mouse neuronal NSC34 cells or human fibroblasts were plated on a 96-well plate at 2 × 10^4 cells/well and then treated with the indicated concentration of peptide for 24 hr (NSC34 cells) or 48 hr (fibroblasts) before measurement of LDH release. The absorbance was measured by iMark microplate absorbance reader (Biorad).
Background: LDH in the medium is a marker of cell lysis.

The nature of data set [3]: Peptides absorption assay (buffer / octanol containing oleic acid). The class given is physicochemical. The conditions noted are these: FITC-labeled peptide, buffers of different pH vs octanol containing 1% oleic acid (v/v), vortexed 5 min, fluorescence. The procedure: All buffers used for the peptide absorption assay were prepared with 140 mM NaCl, 2.5 mM KCl, 5 mM HEPES, 5 mM glycine, and the final pH was adjusted with NaOH or HCl.
The assay to show the effect of pH in peptides absorption into a hydrophobic phase was performed as previously reported. […] Fifty microliter of the buffer-peptide mix and 50 μl of octanol containing 1% of oleic acid (OA) (v/v) were placed into a microtubes and vortexed for 5 min, followed by centrifugation at 2200 g briefly to separate the octanol phase and buffer phase. After separation, octanol phase containing OA and absorbed peptides were collected and the fluorescence was measured by a plate reader TECAN infinite F200 (Mannedorf, Switzerland).

The next data set has as its system Hela cells. In words: Peptide penetration assay, Hela cells at different pH (imaging). The conditions noted are these: PBS pH6.0, pH7.4, pH8.0, 2 μM FITC-peptide, 1 hr. The class given is cell-based, human. The procedure:
For imaging, Hela cells were washed twice with phosphate buffered saline (PBS) (pH7.4) and then incubated with PBS of different pH (pH6.0, pH7.4 and pH8.0) containing 2 μM of FITC-(PR)20 or FITC-R12 for 1 hr, followed by washing with PBS twice. For quantification, HEK293 cells were incubated with 10 μM FITC-(PR)20 in 10% FBS-DMEM for 30 min at 4 °C or 37 °C. The cells were washed twice with PBS and then re-suspended in PBS. The fluorescent signal was measured by a plate reader TECAN infinite F200.

The test system of data set [4] is protein translation (Hela cell lysates). As to the kind of experiment: In vitro translation (IVT) assay, turboGFP fluorescence. The class given is biochemical, human. The conditions noted are these: cell-free IVT, 100 μM peptide, turboGFP cDNA and Hela cell lysates, 37 °C, read every 1 min, N = 3. The procedure:
IVT assay was performed with 1-step Human-Coupled IVT kit (ThermoFisher) following manufacturer’s protocol. Briefly, turboGFP cDNA and Hela cell lysates were mixed in a 96 white-well PCR plate in the presence or absence of 100 μM of each peptide and incubated at 37 °C. The fluorescence from translated turboGFP was measured by LightCycler (Roche lifescience) every 1 min.

Another data set addresses EGFR (Homo sapiens) (UniProt P00533). The conditions noted are these: cited from earlier work.
Data set [5] relates to NSC34 cells. In words: Penetration of FITC-conjugated DRPs into NSC34 cells. Particulars: fluorescence intensity. The class given is cell-based, mouse.
Data set [6] has as its system NSC34 cells. As to the kind of experiment: Cytotox glo assay in NSC34 cells. The class given is cell-based, mouse. Particulars: 24 hr, N = 6. The source says:
Anti-B23/nucleophosmin antibody was purchased from Cell signaling technology (Danvers, MA). RNAse A was obtained from Qiagen (Hilden, Germany). 1-Step Human Coupled IVT kit, oleic acid, poly-A RNA, Prolong Gold with DAPI and Nucblue live reagent were purchased from ThermoFisher Scientific (Waltham, MA). Cytotoxicity LDH Assay Kit-WST and octanol were obtained from Wako pure chemicals (Japan). Cell Titer-Glo and Cell-tox glo kits were purchased from Promega (Madison, WI). TAMRA-labeled random 15mer RNA was synthesized by Fasmac (Japan). Anti-puromycin antibody was purchased from Millipore.

Regarding `N=C(N)NCCC[C@H](NC(=O)[C@@H]1CCCN1C(=O)[C@H](CCCNC(=N)N)NC(=O)[C@@H]1CCCN1C(=O)[C@H](CCCNC(=N)N)NC(=O)[C@@H]1CCCN1C(=O)[C@H](CCCNC(=N)N)NC(=O)[C@@H]1CCCN1C(=O)[C@H](CCCNC(=N)N)NC(=O)[C@@H]1CCCN1C(=O)[C@H](CCCNC(=N)N)NC(=O)[C@@H]1CCCN1C(=O)[C@H](CCCNC(=N)N)NC(=O)[C@@H]1CCCN1C(=O)[C@H](CCCNC(=N)N)NC(=O)[C@@H]1CCCN1C(=O)[C@H](CCCNC(=N)N)NC(=O)[C@@H]1CCCN1C(=O)[C@H](CCCNC(=N)N)NC(=O)[C@@H]1CCCN1C(=O)[C@H](CCCNC(=N)N)NC(=O)[C@@H]1CCCN1C(=O)[C@H](CCCNC(=N)N)NC(=O)[C@@H]1CCCN1C(=S)Nc1ccc2c(c1)C(=O)OC21c2ccc(O)cc2Oc2cc(O)ccc21)C(=O)O` [FITC-(PR)12] (HELM PEPTIDE1{[O=C1OC2(c3ccc(O)cc3Oc3cc(O)ccc32)c2ccc(NC(=S)[*:2])cc21].P.R.P.R.P.R.P.R.P.R.P.R.P.R.P.R.P.R.P.R.P.R.P.R}$$$$V2.0), the “entry into fixed/permeabilized cells” value with HEK293 cells was “entered the cells and accumulated to nucleoli”.

In the case of PRPRPRPRPRPRPRPRPRPRPRPR [(PR)12], the “stability in the culture medium” value in data set [1] was “stable in the culture medium”. Further, the “cytotoxicity, LDH release” value in the data set with NSC34 cells [2] is on record as “did not show cytotoxicity”.

With “human insulin: FITC-labeled recombinant human insulin (51 a.a.), non-permeable, from Sigma”, the “effect of pH on absorption of peptide into the octanol phase” value in data set [3] is listed as “did not enhance the absorption”.

Consider `N=C(N)NCCC[C@H](NC(=O)[C@H](CCCNC(=N)N)NC(=O)[C@H](CCCNC(=N)N)NC(=O)[C@H](CCCNC(=N)N)NC(=O)[C@H](CCCNC(=N)N)NC(=O)[C@H](CCCNC(=N)N)NC(=O)[C@H](CCCNC(=N)N)NC(=O)[C@H](CCCNC(=N)N)NC(=O)[C@H](CCCNC(=N)N)NC(=O)[C@H](CCCNC(=N)N)NC(=O)[C@H](CCCNC(=N)N)NC(=O)[C@H](CCCNC(=N)N)NC(=S)Nc1ccc2c(c1)C(=O)OC21c2ccc(O)cc2Oc2cc(O)ccc21)C(=O)O` [FITC-R12], for which, in the data set with Hela cells, the “effect of extracellular pH on distribution of peptide into cells” value is listed as “higher pH increased the distribution of FITC-labeled CPPs into the cells”.

For “amyloid β: amyloid β (40 a.a.), negative control peptide, from Peptide Institute”, the “inhibition of protein translation in vitro (tGFP fluorescence)” value in [4] is listed as “did not see inhibitory effect”.

For the compound `N=C(N)NCCC[C@H](NC(=O)[C@@H]1CCCN1C(=O)[C@H](CCCNC(=N)N)NC(=O)[C@@H]1CCCN1C(=O)[C@H](CCCNC(=N)N)NC(=O)[C@@H]1CCCN1C(=O)[C@H](CCCNC(=N)N)NC(=O)[C@@H]1CCCN1C(=O)[C@H](CCCNC(=N)N)NC(=O)[C@@H]1CCCN1C(=O)[C@H](CCCNC(=N)N)NC(=O)[C@@H]1CCCN1C(=O)[C@H](CCCNC(=N)N)NC(=O)[C@@H]1CCCN1C(=O)[C@H](CCCNC(=N)N)NC(=O)[C@@H]1CCCN1C(=O)[C@H](CCCNC(=N)N)NC(=O)[C@@H]1CCCN1C(=O)[C@H](CCCNC(=N)N)NC(=O)[C@@H]1CCCN1C(=O)[C@H](CCCNC(=N)N)NC(=O)[C@@H]1CCCN1C(=O)[C@H](CCCNC(=N)N)NC(=O)[C@@H]1CCCN1C(=O)[C@H](CCCNC(=N)N)NC(=O)[C@@H]1CCCN1C(=O)[C@H](CCCNC(=N)N)NC(=O)[C@@H]1CCCN1C(=O)[C@H](CCCNC(=N)N)NC(=O)[C@@H]1CCCN1C(=O)[C@H](CCCNC(=N)N)NC(=O)[C@@H]1CCCN1C(=O)[C@H](CCCNC(=N)N)NC(=O)[C@@H]1CCCN1C(=O)[C@H](CCCNC(=N)N)NC(=O)[C@@H]1CCCN1C(=O)[C@H](CCCNC(=N)N)NC(=O)[C@@H]1CCCN1C(=O)[C@H](CCCNC(=N)N)NC(=O)[C@@H]1CCCN1C(=S)Nc1ccc2c(c1)C(=O)OC21c2ccc(O)cc2Oc2cc(O)ccc21)C(=O)O` [FITC-(PR)20] (HELM PEPTIDE1{[O=C1OC2(c3ccc(O)cc3Oc3cc(O)ccc32)c2ccc(NC(=S)[*:2])cc21].P.R.P.R.P.R.P.R.P.R.P.R.P.R.P.R.P.R.P.R.P.R.P.R.P.R.P.R.P.R.P.R.P.R.P.R.P.R.P.R}$$$$V2.0), the “entry into fixed/permeabilized cells” value in the data set with HEK293 cells was “entered the cells and accumulated to nucleoli”. Besides, in the data set on HEK293 cells (live HEK293 cells, 10 μM FITC-peptide added to culture medium), the “penetration of the plasma membrane of live cells” value was “penetrated the plasma membrane and accumulated to nucleoli”.

Turning to GE11, the pKd with EGFR (Homo sapiens) is 7.66.

As for `N=C(N)NCCC[C@H](NC(=O)CNC(=O)[C@H](CCCNC(=N)N)NC(=O)CNC(=O)[C@H](CCCNC(=N)N)NC(=O)CNC(=O)[C@H](CCCNC(=N)N)NC(=O)CNC(=O)[C@H](CCCNC(=N)N)NC(=O)CNC(=O)[C@H](CCCNC(=N)N)NC(=O)CNC(=O)[C@H](CCCNC(=N)N)NC(=O)CNC(=O)[C@H](CCCNC(=N)N)NC(=O)CNC(=O)[C@H](CCCNC(=N)N)NC(=O)CNC(=O)[C@H](CCCNC(=N)N)NC(=O)CNC(=O)[C@H](CCCNC(=N)N)NC(=O)CNC(=O)[C@H](CCCNC(=N)N)NC(=O)CNC(=O)[C@H](CCCNC(=N)N)NC(=O)CNC(=O)[C@H](CCCNC(=N)N)NC(=O)CNC(=O)[C@H](CCCNC(=N)N)NC(=O)CNC(=O)[C@H](CCCNC(=N)N)NC(=O)CNC(=O)[C@H](CCCNC(=N)N)NC(=O)CNC(=O)[C@H](CCCNC(=N)N)NC(=O)CNC(=O)[C@H](CCCNC(=N)N)NC(=O)CNC(=O)[C@H](CCCNC(=N)N)NC(=O)CN)C(=O)O` [(GR)20], the “penetration into NSC34 cells” value in the data set with NSC34 cells [5] is “also entered the cells as well”.

For the compound “PRPRPRPRPRPRPRPRPRPRPRPRPRPRPRPRPRPRPRPR [(PR)20]”, the “cytotoxicity, Cytotox glo luminescence” value in the data set on NSC34 cells [6] is “killed the cells”. In the data set with NSC34 cells [5], the “penetration into NSC34 cells” value is “entered NSC34 cells more efficiently”. Moreover, in the data set with NSC34 cells [2], the “cytotoxicity, LDH release” value is given as “killed the cells; also recorded: exerted stronger cytotoxicity”.

By pKd is commonly meant the Kd on a negative log10 scale, so that one unit is a factor of ten.
